# Laboratory results published in patent US12128072B2, “Hepatocytes and hepatic non-parenchymal cells, and methods for preparation thereof” (The University of Tokyo, priority 2015, dated 2024).
# Tested on: mouse CD45-FLK1+CD31+CD34+ cells (liver sinusoidal endothelial progenitor cells)
# Assay: Expression of liver sinusoidal endothelial cell marker genes by quantitative RT-PCR in mouse embryonic liver FLK1+CD31+CD34+ cells
# Format: cell-based
# Conditions: 5 days after addition of A83-01, versus day 0 before addition; FIG. 45
# Experimental: TRIzol reagent (Life Technologies) or NucleoSpin RNA XS (MACHEREY-NAGAL, Duren, Germany) was used to extract the RNA. The remaining genomic DNA was digested using DNaseI (Life Technologies), and then a PrimeScript II 1st strand cDNA Synthesis Kit (Takara Bio, Shiga, Japan) was used to synthesize single-stranded cDNA. The quantitative RT-PCR was carried out using SYBR Premix EX TaqII (Takara Bio, Shiga, Japan), and the data were calculated according to the ddCt method with β-actin as the standardization control.
# Liver was collected from a 12.5-day-old mouse embryo (C57BL/6 mouse). The liver was minced and digested for 10 minutes with Liver Digestion Medium (Life Technologies, California, US). The digested embryonic mouse hepatocytes were subjected to hemolysis and passed through a 70 μm cell strainer (BD Bioscience, New Jersey, US). […]
# The FLK1^+CD31^+CD34^+ cells separated above were also seeded in a fibronectin-coated plate to 15,000 cells/cm^2 and cultured in endothelial cell medium. […] The cell count was calculated using a hemocytometer, after dissociating the cells using 0.05% trypsin/0.5 mM EDTA.
smiles,measurement,value
"Cc1cccc(-c2nn(C(=S)Nc3ccccc3)cc2-c2ccnc3ccccc23)n1 [A83-01, 3-(6-methyl-2-pyridinyl)-N-phenyl-4-(4-quinolinyl)-1H-pyrazolo-1-carbothioamide]","expression of the mature liver sinusoidal endothelial cell marker genes Stab2, F8 and Lyve1",significantly induced expression
